Where two headings read alike, the source gives them in different places.
Key:
FLAG-tagged PRMT1 [1] = target: T1, FLAG-tagged PRMT1 (Rattus norvegicus, UniProt Q63009); experiment: Fluorescence-based in vitro PRMT assay (F-PRMT assay), PRMT1; assay type: biochemical; details: for activation at 100 µM: read-out: enhancement (increase) of PRMT1 enzymatic activity
T1 construct: Full-length FLAG-tagged PRMT protein; made in house; host or cells: Sf9 insect cells (baculovirus)

PANC-1 cells = experiment: Cell viability, CellTiter-Glo assay, PANC-1; assay type: cell-based, human; details: n = 3, read-out: half-maximal inhibitory concentration (IC50) for PANC-1 cell viability
Description: (§1) As negative control (Ctrl (−)), PRMT1 enzymes and [^14C-methyl]-SAM were incubated without substrates. Subsequently, samples were separated by SDS-PAGE, blotted, and analyzed by autoradiography. Substrates (H2A, H4 or GST-GAR) and molecular weights (kDa) of the protein marker are indicated. Black lines designate composite images, assembled from the same blots and exposure times. The methylation signals of the substrates were densitometrically quantified, and expressed relative to the DMSO-treated control, as indicated by the numbers below the autoradiographs. Representative results are depicted, with quantification graphs (below the autoradiographs in A and B) summarizing biological replicates. […] Subsequently, GST-GAR was immobilized on glutathione-beads and PRMT1 activity was measured by quantifying the incorporation of ^14C-methyl groups (in cpm) using liquid scintillation counting. […] Cell viability was quantified using the CellTiter-Glo assay. Viability of compound-treated cells is shown in % relative to the viability of solvent-treated cells, which was set to 100% (mean ± SD, n = 3), and then plotted against the logarithm of the compound concentrations. Concentration-viability curves were fitted by nonlinear regression, with the half-maximal inhibitory concentration (IC50) of the compounds for PANC-1 cell viability and the coefficient of determination (R^2) indicated. […] Subsequently, whole-cell extracts were prepared and analyzed by Western blot using antibodies against ADMA, ACTIN (ACT), and VINCULIN (VINC), of which the latter two stainings served as loading controls. Molecular weights (kDa) of the protein marker are indicated. All the ADMA signals per lane were densitometrically quantified, normalized to the signal of the respective loading control and expressed relative to the DMSO-treated control, as indicated by the numbers below the immunostainings.
Cell viability was assessed using the CellTiter-Glo assay (Promega) according to the manufacturer’s instructions. Briefly, PANC-1 and PaTu8988T cells were seeded as triplicates in 96 well plates (5 × 10^3 cells/well) and allowed to adhere for 3–4 h, followed by treatment with the compounds at 11–12 concentrations spanning 0.028–120 μM for 96 h, with DMSO (solvent) treated cells serving as control. Subsequently, cell viability was quantified by measuring luminescence on a microplate reader, and the signal of compound-treated cells was normalized to the signal of the solvent-treated control, which was set to 100%. Cell viability in % was plotted against the logarithm of the compound concentration, and concentration-response curves were fitted by nonlinear regression using a three-parameter logistic model to determine half-maximal inhibitory concentrations (IC50).

[2] = test system: FLAG-tagged PRMT1 or His-tagged PRMT1; experiment: Radioactive in vitro methyltransferase assay, autoradiography (core histones or GST-GAR); assay type: biochemical, rat, human; details: 100 μM compound, [14C]-methyl-SAM, vs DMSO-treated control
Source text: Given that the effects of the PRMT1 activators had been screened and quantified so far using the F-PRMT assay, we next assessed the efficacy of the selected compounds in stimulating PRMT1-mediated methylation of natural substrates. To this end, we conducted in vitro methyltransferase assays using recombinant PRMT1 and core histones or GST-tagged GAR (glycine-arginine-rich domain of fibrillarin) as substrates of PRMT1. , Addition of the cofactor [^14C]-methyl-SAM allowed for the visualization of radiolabeled methyl group incorporation into the substrate proteins by SDS-PAGE and autoradiography or by liquid scintillation counting. […] It is important to note that PRMT1 methylates both H2A and H4, albeit with variable efficiency. […] As a result, the methylation signals of both histones were considered in the quantification process (Figure A, B).
as §1, with “immunostainings. […]” for “immunostainings.”

FLAG-tagged PRMT1 [3] = target: T1, FLAG-tagged PRMT1; experiment: Liquid in vitro methyltransferase assay, scintillation counting (GST-GAR); assay type: biochemical; details: 200 μM compound, except TR-033 100 μM; vs DMSO control
Description: as §1
For the liquid methyltransferase assays, the reaction mixtures, containing 1–2 μg eluted FLAG-tagged PRMT1 and as the substrate 1–2 μg eluted GST-GAR protein at a total volume of 20 μL in PBS, were preincubated in the absence (DMSO) or presence of compounds at room temperature and under agitation (800 rpm) for 30 min. […] After washing, 1 mL scintillation liquid (Rotiszint ecoplus, Roth) was added to the bead-bound GST-GAR and incorporated ^14C-methyl groups were quantified using a scintillation counter (LS6500, Beckman Coulter). Background signal was determined using 1 mL of scintillation fluid alone and was subtracted from the measured counts of the enzymatic reactions. Compound-treated PRMT1 activity was expressed as background-corrected counts (in cpm) normalized to the DMSO control.

[4] = 100 μM compound, increase over solvent-treated activity

T1 sequence (Q63009 whole entry): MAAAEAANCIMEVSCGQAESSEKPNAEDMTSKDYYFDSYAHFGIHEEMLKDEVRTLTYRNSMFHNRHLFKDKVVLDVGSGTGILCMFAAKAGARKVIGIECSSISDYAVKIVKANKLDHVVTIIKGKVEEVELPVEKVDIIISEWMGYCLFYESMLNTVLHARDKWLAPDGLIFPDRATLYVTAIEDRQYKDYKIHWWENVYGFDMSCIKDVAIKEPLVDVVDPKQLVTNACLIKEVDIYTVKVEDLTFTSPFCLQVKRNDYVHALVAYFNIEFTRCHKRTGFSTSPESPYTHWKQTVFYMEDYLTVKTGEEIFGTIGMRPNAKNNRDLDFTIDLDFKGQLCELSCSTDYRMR

CCN(CC)Cc1cccc(N/C=C2\C(=O)NC(=O)c3ccccc32)c1.Cl [TR-036, (Z )-N-(3-{[(1,3-Dioxo-2,3-dihydroisoquinoline-4(1 H )-ylidene)methyl]amino}benzyl)-N -ethylethanaminium chloride]
PRMT1 activity compared to the solvent-treated activity of 100% (FLAG-tagged PRMT1 [1]; 100 μM compound): 215–225% | activation at 100 µM (FLAG-tagged PRMT1 [1]; [4]): ≥ 60% | IC50 (PANC-1 cells; Homo sapiens, PANC-1, 96 h): 32 µM | PRMT1 methylation activity toward histones H2A and H4 and GAR, autoradiography [2]: increased | PRMT1 methylation activity toward GST-GAR, liquid scintillation counting (FLAG-tagged PRMT1 [3]): increased

CN(C)Cc1cccc(-c2ccc3[nH]c(=O)c4ccccc4c3c2)c1 [TR-033, 2-{3-[(Dimethylamino)methyl]phenyl}phenanthridin-6(5H)-One]
PRMT1 activity compared to the solvent-treated activity of 100% (FLAG-tagged PRMT1 [1]; 100 μM compound): 215–225% | effect on PRMT1 activity (in words) (FLAG-tagged PRMT1 [1]; 100 μM compound): significantly increased PRMT1 activity | activation at 100 µM (FLAG-tagged PRMT1 [1]; [4]): ≥ 60% | IC50 (PANC-1 cells; Homo sapiens, PANC-1, 96 h): 10 µM | PRMT1 methylation activity toward histones H2A and H4 and GAR, autoradiography [2]: increased | PRMT1 methylation activity toward GST-GAR, liquid scintillation counting (FLAG-tagged PRMT1 [3]): increased

CN(C)Cc1cccc(CN/C=C2\C(=O)NC(=O)c3ccccc32)c1.Cl [TR-07, (Z)-1-[3-({[(1,3-Dioxo-2,3-dihydroisoquinolin-4(1H)-lidene)methyl]amino}methyl)phenyl]-N,N-dimethylmethanaminium chloride]
enhancement (increase) of PRMT1 enzymatic activity (FLAG-tagged PRMT1 [1]; [4]): +45% | Efficacy ±Δ% (PRMT1) (FLAG-tagged PRMT1 [1]; Table 1, 100 μM compound, mean % difference of activity vs solvent control (100%), - inhibition, + activation, n = 3): +45% | Efficacy ±∆% (PRMT1) (FLAG-tagged PRMT1 [1]; Table S3, 100 µM compound, mean % difference vs solvent control (100%), n≥3): +45% | EC50 (FLAG-tagged PRMT1 [1]; read-out: half-maximal effective concentration (EC50) for PRMT1): 108 µM | IC50 (PANC-1 cells; Homo sapiens, PANC-1, 96 h): 45 µM | PRMT1 methylation activity toward histones H2A and H4 and GAR, autoradiography [2]: increased | PRMT1 methylation activity toward GST-GAR, liquid scintillation counting (FLAG-tagged PRMT1 [3]): increased

(Z)-2-(2-{[(1,3-Dioxo-2,3-dihydroisoquinolin-4(1H)-ylidene)methyl]amino}phenyl)-N,N-dimethylethan-1-aminium chloride [ICTR-059]
PRMT1 activity compared to the solvent-treated activity of 100% (FLAG-tagged PRMT1 [1]; 100 μM compound): up to 200% | IC50 (PANC-1 cells; 96 h): 19 µM | PRMT1 methylation activity toward histones H2A and H4 and GAR, autoradiography [2]: increased | PRMT1 methylation activity toward GST-GAR, liquid scintillation counting (FLAG-tagged PRMT1 [3]): increased

From article PMC13576449, “Small-Molecule Activators of PRMT1: Discovery, SAR Analyses, and Proapoptotic Effects in Pancreatic Cancer Cells” (Journal of Medicinal Chemistry, 2026)
